Source: patent publication US20230047816A1 (priority 2018, published 2023)

Key:
[1] = system: MCAO model of brain ischemia; test: MCAO model of brain ischemia, rota-rod test; assay type: in vivo, C57BL/6-J mice; conditions: 60 mg/kg bolus via jugular vein after reperfusion; 30 mins occlusion; test 24 hours after MCAO
Procedure: For the MCAO model of brain ischemia, 10 weeks-old male C57BL/6-J mice were used (n=8 animals per condition) following a published protocol (1,2). Mice were anesthetized with 4% (vol/vol) Sevoflurane in a mixture of ⅓ O2 and ⅔ N2O using a vaporizer. After the induction of anesthesia, Sevoflurane was reduced to 3% (vol/vol). The body temperature was maintained at 36.5° C. during the surgery. A laser-Doppler flow probe attached to a flowmeter was located over the thinned skull in the MCAO area (4 mm lateral to bregma) to monitor the relative cerebral brain flow during the experiment. Under operating microscope, the common, external and internal carotid arteries were dissected from connective tissue through a midline neck incision. The common carotid artery (CCA) was carefully dissected from the surrounding nerves with caution to avoid harming of the vagal nerve. A suture monofilament was introduced from the lumen of the external carotid artery (ECA) into the internal carotid artery (ICA) to a distance of 9-10 mm beyond the CCA bifurcation, in order to occlude the origin of middle cerebral artery (MCA). The filament was removed 30 mins after occlusion. AZ67 or compound 1 (60 mg/kg of body weight) or vehicle were administered in a bolus (200 μl) via the jugular vein immediately after reperfusion. […] The latency to fall was determined and expressed in seconds.

Cln7Aex2 mice = Cln7Aex2 mice in vivo (cortex pathology, hindlimb paralysis)
[2] = system: Caenorhabditis elegans N2; test: C. elegans life span in 96 well microtiter plates; assay type: in vivo; conditions: strain N2
Excerpt: The test of AZ67 compound had been made according to protocol disclosed in Solis, G. M., Petrascheck, M. Measuring Caenorhabditis elegans

primary neurons = test: Mitochondrial ROS in NMDA and glutamate excitotoxic models; assay type: cell-based; conditions: 0.01 μM, triggered by NMDA and glutamate, FIG. 4B
[3] = Cln7Aex2 mice in vivo, FIGS. 15A-15C

In the case of `Cc1noc(C)c1Cn1cc(C#N)c2cc(Oc3ccc(NC(=O)[C@@H]4CCCN4)cc3)ccc21` [AZ67, (2S)-N-[4-({3-cyano-1-[(3,5-dimethyl-1,2-oxazol-4-yl)methyl]-1H-indol-5-yl}oxy)phenyl]pyrrolidine-2-carboxamide], the “improvement in rota-rod test performance (latency to fall)” value [1] is reported as ~50%, the “accumulation of SCMAS in the cortex” value (Cln7Aex2 mice; [3]) is reported as “prevented the accumulation” and the “accumulation of lipofuscin in the cortex” value (Cln7Aex2 mice; [3]) is reported as “prevented the accumulation”. The “accumulation of reactive astroglia in the cortex” value (Cln7Aex2 mice; [3]) was “prevented the accumulation”, the hindlimb paralysis (Cln7Aex2 mice; Cln7Aex2 mice, FIG. 15D) was “prevented” and the “% LS change” value ([2]; Conc 10 uM, set AI) was −8%. The “Lifespan” value ([2]; Conc 10 uM, set AI) was 18.81 days, the “% LS change” value ([2]; Conc 100 uM, set AI) was 24% and the “Lifespan” value ([2]; Conc 100 uM, set AI) was 25.45 days. The “% LS change” value ([2]; conc 10, set Aib) was 15%, the “Lifespan” value ([2]; conc 10, set Aib) was 25.98 days and the “% LS change” value ([2]; conc 100, set Aib) was 22%. For the same molecule, the “Lifespan” value ([2]; conc 100, set Aib) was 27.47 days and the “increase in mitochondrial ROS” value (primary neurons) was “significantly prevented”.
